Source: ChEMBL document CHEMBL1201862, “PubChem BioAssay data set” (2004)
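Results reflect a 48-hour exposure of cells in 96-well plates to compound at five concentrations. Here, GI50 denotes the concentration required for 50% inhibition of growth.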 Activity calls are given as the source filed them. Cut-off read from the data, not from the text of the source: active = GI50 up to about 1.1 µM and inactive = higher. Residues, ends and D or L forms follow the SMILES beside them. Groups on a side chain read outwards from the residue. *: point of attachment. Cbz = O=C(OCc1ccccc1)*; Boc = CC(C)(C)OC(=O)*

Tests used:
Assay in all cases: inhibition of tumour cell growth, NCI panel, 48 h
CCRF-CEM = tested on: CCRF-CEM
BT-549 = tested on: BT-549
OVCAR-3 = tested on: OVCAR-3
K562 = tested on: K562
SK-MEL-28 = tested on: SK-MEL-28
NCI/ADR-RES = tested on: NCI/ADR-RES
IGROV-1 = tested on: IGROV-1
SNB-75 = tested on: SNB-75
PC-3 = tested on: PC-3
OVCAR-8 = tested on: OVCAR-8
HL-60 = tested on: HL-60
HCC 2998 = tested on: HCC 2998
A549 = tested on: A549
EKVX = tested on: EKVX
SN12C = tested on: SN12C
SR = tested on: SR

SMILES | GI50 (CCRF-CEM) | GI50 (BT-549) | GI50 (OVCAR-3) | GI50 (K562) | GI50 (SK-MEL-28) | GI50 (NCI/ADR-RES) | GI50 (IGROV-1) | GI50 (SNB-75) | GI50 (PC-3) | GI50 (OVCAR-8) | GI50 (HL-60) | GI50 (HCC 2998) | GI50 (A549) | GI50 (EKVX) | GI50 (SN12C) | GI50 (SR)
COc1cccc(OCC(=N/NC(=O)c2ccncc2)/N=C/c2cccnc2)c1 | > 100 µM (inactive) | > 100 µM (inactive) | > 100 µM (inactive) | > 100 µM (inactive) | > 100 µM (inactive) | > 100 µM (inactive) | > 100 µM (inactive) | > 100 µM (inactive) | > 100 µM (inactive) | 86.3 µM (inactive) | > 100 µM (inactive) | > 100 µM (inactive) | > 100 µM (inactive) | > 100 µM (inactive) |  | 
CCOC(=O)C(C(=O)c1ccccc1C(=O)OC)=P(c1ccccc1)(c1ccccc1)c1ccccc1 | > 10 µM (inactive) | > 10 µM (inactive) | > 10 µM (inactive) | > 10 µM (inactive) | > 10 µM (inactive) | > 10 µM (inactive) | > 10 µM (inactive) | > 10 µM (inactive) | > 10 µM (inactive) | > 10 µM (inactive) | > 10 µM (inactive) | > 10 µM (inactive) | > 10 µM (inactive) | > 10 µM (inactive) | > 10 µM (inactive) | 
CS(=O)(=O)c1ccc(C2=C(c3ccccc3)C(=O)OC2)cc1 [ROFECOXIB] | > 100 µM (inactive) |  | > 100 µM (inactive) | > 100 µM (inactive) | > 100 µM (inactive) | > 100 µM (inactive) | > 100 µM (inactive) | > 100 µM (inactive) | > 100 µM (inactive) | > 100 µM (inactive) | > 100 µM (inactive) | > 100 µM (inactive) | > 100 µM (inactive) | > 100 µM (inactive) | > 100 µM (inactive) | > 100 µM (inactive)
CC(C)(C)OC(=O)NC(CCCCNC(=O)CNC(=O)OCc1ccccc1)C(=O)NC(CCCCNC(=O)CNC(=O)OCc1ccccc1)C(=O)NC(CCCCNC(=O)CNC(=O)OCc1ccccc1)C(=O)NC(CCCCNC(=O)CNC(=O)OCc1ccccc1)C(=O)O (stereo not drawn) (Boc-K([Gly-Cbz])K([Gly-Cbz])K([Gly-Cbz])K([Gly-Cbz])-OH; configuration not given here) | > 100 µM (inactive) | > 100 µM (inactive) | > 100 µM (inactive) | > 100 µM (inactive) | > 100 µM (inactive) |  | > 100 µM (inactive) | > 100 µM (inactive) | > 100 µM (inactive) | > 100 µM (inactive) | > 100 µM (inactive) | > 100 µM (inactive) | > 100 µM (inactive) |  | > 100 µM (inactive) | > 100 µM (inactive)
Cc1nc2c(=S)n(C)ncc2[nH]1 | > 100 µM (inactive) | > 100 µM (inactive) | > 100 µM (inactive) | > 100 µM (inactive) | > 100 µM (inactive) | > 100 µM (inactive) | > 100 µM (inactive) | > 100 µM (inactive) | > 100 µM (inactive) | > 100 µM (inactive) | > 100 µM (inactive) | > 100 µM (inactive) | > 100 µM (inactive) | > 100 µM (inactive) | > 100 µM (inactive) | 
CCc1cc2c(oc3cc(C)ccc32)c(=O)n1C | > 10 µM (inactive) | > 10 µM (inactive) | > 10 µM (inactive) | > 10 µM (inactive) |  |  | > 10 µM (inactive) | > 10 µM (inactive) | > 10 µM (inactive) | > 10 µM (inactive) | > 10 µM (inactive) | > 10 µM (inactive) | > 10 µM (inactive) | > 10 µM (inactive) | > 10 µM (inactive) | > 10 µM (inactive)
CCCCCCCC/C=C\CCCCCCC(F)C(=O)O (stereo not drawn) | > 12.5 µM (inactive) |  | > 12.5 µM (inactive) | > 12.5 µM (inactive) | > 12.5 µM (inactive) | > 12.5 µM (inactive) | > 12.5 µM (inactive) | > 12.5 µM (inactive) | > 12.5 µM (inactive) | > 12.5 µM (inactive) | > 12.5 µM (inactive) | > 12.5 µM (inactive) | > 12.5 µM (inactive) | 2.25 µM (inactive) | > 12.5 µM (inactive) | > 12.5 µM (inactive)
Cc1nnc2n1-c1ccccc1-c1[nH]c3ccccc3c1C2 | 53.8 µM (inactive) |  | 76.6 µM (inactive) | 24.2 µM (inactive) | 73.5 µM (inactive) | 69.8 µM (inactive) | 70 µM (inactive) | 8.24 µM (inactive) | 46.1 µM (inactive) | 38.1 µM (inactive) | 21.2 µM (inactive) |  | 91 µM (inactive) | > 100 µM (inactive) | > 100 µM (inactive) | 22.8 µM (inactive)
Nc1ncnc2c1ncn2C1C=CC(COS(N)(=O)=O)C1 (stereo not drawn) | 18.4 µM (inactive) |  | 31 µM (inactive) | 16.2 µM (inactive) | 20.5 µM (inactive) | 66.2 µM (inactive) | 34.2 µM (inactive) | 21.9 µM (inactive) | 12 µM (inactive) | 13.1 µM (inactive) | 4.19 µM (inactive) | 35.7 µM (inactive) | 36.2 µM (inactive) | > 100 µM (inactive) | 8.2 µM (inactive) | 8.55 µM (inactive)
S=C(/N=c1\sc(NCc2ccccc2)nc2sc3c(c12)CCN(N1CCc2c(sc4nc(NCc5ccccc5)s/c(=N\C(=S)NCc5ccccc5)c24)C1)C3)NCc1ccccc1 | 2.56 µM (inactive) | 62.2 µM (inactive) | 20.1 µM (inactive) | 17.4 µM (inactive) | 63.4 µM (inactive) | 37.8 µM (inactive) | 28 µM (inactive) | 17.4 µM (inactive) | 17 µM (inactive) | 20.9 µM (inactive) | 25.4 µM (inactive) | 44.7 µM (inactive) | 27.4 µM (inactive) | 19.9 µM (inactive) | 16.2 µM (inactive) | 
O=CNNC(=O)Nc1cccc2ccccc12 | > 100 µM (inactive) |  |  | > 100 µM (inactive) | > 100 µM (inactive) | > 100 µM (inactive) | > 100 µM (inactive) | > 100 µM (inactive) |  | > 100 µM (inactive) | > 100 µM (inactive) | > 100 µM (inactive) | > 100 µM (inactive) | > 100 µM (inactive) | > 100 µM (inactive) | > 100 µM (inactive)
CC(=O)Nc1ccc2c(c1)[nH]c(=O)c1cc(Cl)ccc12 | 0.341 µM (active) | 25.8 µM (inactive) |  | 34.1 µM (inactive) | 38.8 µM (inactive) | 48.8 µM (inactive) | 6.75 µM (inactive) | 52.4 µM (inactive) |  | 10 µM (inactive) | 21.1 µM (inactive) | 38.5 µM (inactive) | 5.61 µM (inactive) | 26.2 µM (inactive) | 43.5 µM (inactive) | 3.2 µM (inactive)
CC(C)CC1C(=O)NCCC(NC(=O)C(N)Cc2ccc(O)cc2)C(=O)NC(Cc2ccccc2)C(=O)NC(Cc2ccccc2)NC1=O (stereo not drawn) | > 100 µM (inactive) |  | > 100 µM (inactive) | > 100 µM (inactive) | > 100 µM (inactive) | > 100 µM (inactive) | > 100 µM (inactive) | > 100 µM (inactive) | > 100 µM (inactive) | > 100 µM (inactive) | > 100 µM (inactive) | > 100 µM (inactive) | > 100 µM (inactive) | > 100 µM (inactive) | > 100 µM (inactive) | > 100 µM (inactive)
